Test results from patent US7888510B2, “2-′4(phenylamino)-piperidin-1-yl!-n-phenyl-acetamine derivatives and related compounds as neuropeptide Y5 (NPY5) ligands for the treatment of obesity” (Laboratorios del Dr. Esteve S.A., priority 2003, dated 2011).
Counter-ions that a name gives are not always drawn.

Test system: not given
Test: not given
Conditions: not given

Row | Structure (SMILES) | melting point [°C]
1 | Cc1ccc(NC2CCN(CC(=O)Nc3ccc4c(c3)-c3ccccc3C4=O)CC2)c(CO)c1 [Example 2a, 2-[4-(2-Hydroxymethyl-4-methyl-phenylamino)-piperidin-1-yl]-N-(9-oxo-9H-fluoren-3-yl)-acetamide] | 152
2 | COC(=O)c1ccccc1NC1CCN(CC(=O)Nc2ccc3c(c2)-c2ccccc2C3=O)CC1.Cl | 258
3 | O=C(CN1CCC(Nc2ccccc2CO)CC1)Nc1ccc2c(c1)CCC2=O | 138 to 140

Other lines, results leading:

Row | melting point [°C] | Structure (SMILES)
4 | 124 | Cc1ccc(NC2CCN(CC(=O)Nc3ccc4c(c3)-c3ccccc3C4O)CC2)c(CO)c1 (stereo not drawn) [Example 4a, N-(9-Hydroxy-9H-fluoren-3-yl)-2-[4-(2-hydroxymethyl-4-methyl-phenylamino)-piperidin-1-yl]-acetamide]
5 | 113 | Cc1cccc(CO)c1NC1CCN(CC(=O)Nc2ccc3c(c2)-c2ccccc2C3=O)CC1 [Example 3a, 2-[4-(2-Hydroxymethyl-6-methyl-phenylamino)-piperidin-1-yl]-N-(9-oxo-9H-fluoren-3-yl)-acetamide]
6 | 128 | Cc1ccc(NC2CCN(CC(=O)Nc3ccccc3)CC2)c(CO)c1 [Example 7a, 2-[4-(2-Hydroxymethyl-4-methyl-phenylamino)-piperidin-1-yl]-N-phenyl-acetamide]
7 | 133 | Cc1cccc(CO)c1NC1CCN(CC(=O)Nc2ccc3c(c2)-c2ccccc2C3O)CC1 (stereo not drawn) [Example 5a, N-(9-Hydroxy-9H-fluoren-3-yl)-2-[4-(2-hydroxymethyl-6-methyl-phenylamino)-piperidin-1-yl]-acetamide]

Biological target: T1, rat Y5 receptor (Rattus norvegicus, UniProt Q63634)
T1 construct: expressed in transfected cells; host or cells: C6 cells (membrane preparation)
T1 sequence (Q63634 1-445): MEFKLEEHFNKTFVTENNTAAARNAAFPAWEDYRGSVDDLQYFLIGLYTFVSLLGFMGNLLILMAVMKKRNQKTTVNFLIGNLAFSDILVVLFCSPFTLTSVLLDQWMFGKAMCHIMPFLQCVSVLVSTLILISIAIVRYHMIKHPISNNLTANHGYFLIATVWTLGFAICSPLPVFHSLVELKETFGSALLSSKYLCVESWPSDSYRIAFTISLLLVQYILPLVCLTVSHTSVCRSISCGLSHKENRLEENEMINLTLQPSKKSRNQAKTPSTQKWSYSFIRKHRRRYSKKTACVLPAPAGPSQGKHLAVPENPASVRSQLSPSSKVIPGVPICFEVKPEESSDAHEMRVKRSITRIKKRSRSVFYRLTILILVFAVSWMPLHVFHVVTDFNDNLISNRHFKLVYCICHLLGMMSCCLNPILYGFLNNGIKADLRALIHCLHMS
Test: Neuropeptide Y5 receptor binding ([125I]-PYY displacement, membranes of transfected C6 cells)
Conditions: 10^−6 M; membranes of C6 cells transfected with the rat Y5 receptor; radioligand [125I]-PYY 100 pM
Method: Neuropeptide Y5 Receptor Binding Studies:
The methods used for membrane preparation and binding are similar to those described by Y. Hu, B. T. Bloomquist et al. in Y. Hu, B. T. Bloomquist et al., The Journal of Biological Chemistry, 1996, 271, 26315-26319 with modifications. Said literature description is herewith incorporated by reference and forms part of the disclosure. Cells C6 were transfected with the rat Y5 receptor. The cells were grown under standard culture conditions in 150 cm^2 dishes and they were harvested using a rubber scraper and 10 ml PBS. The cells from five dishes were collected and centrifuged 2.500 g for 5 min (4° C.). The pellet was washed by resuspending in 3 ml buffer (Tris-HCl 10 mM, pH 7.4), homogenized using a Potter S homogenizer, 10 strokes at 600 rpm and centrifuged 48.000 g for 20 min (4° C.). The pellet was resuspended in 8 ml membrane buffer (Tris-HCl 25 mM, NaCl 120 mM, KCl 5 mM, KH2PO4 1.2 mM, CaCl2 2.5 mM, MgSO4 1.2 mM, BSA 0.15 mg/ml, Bacitracine 0.5 mg/ml, pH 7.4) and rehomogenized using the Potter S, 10 strokes at 600 rpm. The protein concentration in the incubation was […]. The radioligand was [^125I]-PYY (100 pM) in a total incubation volume of 200 μl. Following incubation at 25° C. for 2 h, the reaction was stopped by addition of 5 ml ice-cold buffer (Tris-HCl 25 mM, NaCl 120 mM, KCl 5 mM, KH2PO4 1.2 mM, CaCl2 2.5 mM, MgSO4 1.2 mM, pH 7.4) and rapid filtration in a Harvester Brandell Cell using filters (Schleicher & Schuell GF 3362) pretreated for two hours with 0.5% polyethyleneimine. Filters were washed one time with 5 ml ice-cold buffer. The filters were placed into plastic scintilation vials and 5 ml scintilation cocktail Ecoscint H were added. The quantity of radioactivity present was determined in a Wallac Winspectral 1414 counter. Non specific binding was determined in the presence of 1 μM de pNPY. All binding assays were done in triplicate.

Row | inhibition at 1 µM [%] | Structure (SMILES)
8 | 88.9 | Cc1ccc(NC2CCN(CC(=O)Nc3ccc(C(=O)c4ccccc4)cc3)CC2)c(CO)c1 [Example 14, N-(4-Benzoyl-phenyl)-2-[4-(2-hydroxymethyl-4-methyl-phenylamino)-piperidin-1-yl]-acetamide]
9 | 80.4 | Cc1cccc(CO)c1NC1CCN(CC(=O)Nc2cnc3ccccc3c2)CC1 [Example 9, 2-[4-(2-Hydroxymethyl-6-methyl-phenylamino)-piperidin-1-yl]-N-quinolin-3-yl-acetamide]
10 | 82.3 | Cc1ccc(NC2CCN(CC(=O)Nc3ccc4ncccc4c3)CC2)c(CO)c1 [Example 7, 2-[4-(2-Hydroxymethyl-4-methyl-phenylamino)-piperidin-1-yl]-N-quinolin-6-yl-acetamide]
11 | 86.2 | Cc1ccc(NC2CCN(CC(=O)Nc3cnc4ccccc4c3)CC2)c(CO)c1 [Example 5, 2-[4-(2-Hydroxymethyl-4-methyl-phenylamino)-piperidin-1-yl]-N-quinolin-3-yl-acetamide]
12 | 73.9 | Cc1cccc(CO)c1NC1CCN(CC(=O)Nc2ccc3ncccc3c2)CC1 [Example 11, 2-[4-(2-Hydroxymethyl-6-methyl-phenylamino)-piperidin-1-yl]-N-quinolin-6-yl-acetamide]
13 | 93.2 | Cc1cccc(CO)c1NC1CCN(CC(=O)Nc2ccc(C(=O)c3ccccc3)cc2)CC1 [Example 15, N-(4-Benzoyl-phenyl)-2-[4-(2-hydroxymethyl-6-methyl-phenylamino)-piperidin-1-yl]-acetamide]
14 | 81.5 | O=C(CN1CCC(Nc2ccccc2CO)CC1)Nc1ccc(C(=O)c2ccccc2)cc1 [Example 13, N-(4-Benzoyl-phenyl)-2-[4-(2-hydroxymethyl-phenylamino)-piperidin-1-yl]-acetamide]

Same assay, conditions: membranes of C6 cells transfected with the rat Y5 receptor; radioligand [125I]-PYY 100 pM; 25° C., 2 h

Row | Structure (SMILES) | IC50 [µM]
15 | CCn1c2ccccc2c2cc(NC(=O)CN3CCC(Nc4c(C)cccc4CO)CC3)ccc21 [Example 1a, N-(9-Ethyl-9H-carbazol-3-yl)-2-[4-(2-hydroxymethyl-6-methyl-phenylamino)-piperidin-yl]acetamide dihydrochloride] | 0.05
16 | Cc1ccc(NC2CCN(CC(=O)Nc3ccc4c(c3)-c3ccccc3C4=O)CC2)c(CO)c1 [Example 2a, 2-[4-(2-Hydroxymethyl-4-methyl-phenylamino)-piperidin-1-yl]-N-(9-oxo-9H-fluoren-3-yl)-acetamide] | 0.0809

Second part, the molecule after the results:

Row | IC50 [µM] | Structure (SMILES)
17 | 0.0363 | Cc1cccc(CO)c1NC1CCN(CC(=O)Nc2ccc3c(c2)-c2ccccc2C3=O)CC1 [Example 3a, 2-[4-(2-Hydroxymethyl-6-methyl-phenylamino)-piperidin-1-yl]-N-(9-oxo-9H-fluoren-3-yl)-acetamide]
18 | 0.0401 | Cc1cccc(CO)c1NC1CCN(CC(=O)Nc2ccc3c(c2)-c2ccccc2C3O)CC1 (stereo not drawn) [Example 5a, N-(9-Hydroxy-9H-fluoren-3-yl)-2-[4-(2-hydroxymethyl-6-methyl-phenylamino)-piperidin-1-yl]-acetamide]
